US8389739B1, “Modulators of retinoid-related orphan receptor gamma” (Orphagen Pharmaceuticals, priority 2006, dated 2013)
Entries after “also recorded” stand apart in the source; their conditions may differ. Read-outs that look alike come from different tables or passages of the source. Blank lines part the entries; values can stand above or below the compound they belong to.

What was measured:
human RORγ = target: T1, human RORγ (Homo sapiens, UniProt P51449); assay: Transcriptional assay of human RORγ (Gal4-hRORγ); assay type: cell-based; settings: Table 4B
T1 construct: expressed in transfected cells; host or cells: CHO cells, transient transfection
T1 sequence (P51449 253-518): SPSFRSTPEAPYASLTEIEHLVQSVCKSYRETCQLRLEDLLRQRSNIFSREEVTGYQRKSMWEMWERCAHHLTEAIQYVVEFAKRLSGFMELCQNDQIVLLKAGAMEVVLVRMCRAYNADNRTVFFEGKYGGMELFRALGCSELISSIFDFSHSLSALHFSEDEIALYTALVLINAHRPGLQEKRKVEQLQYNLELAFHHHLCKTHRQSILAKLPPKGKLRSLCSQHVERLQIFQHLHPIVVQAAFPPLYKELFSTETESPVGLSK
Method: The complete Gal4-hRORγ nucleotide sequence is shown below:
A firefly luciferase reporter gene for Gal4 DBD hybrid receptors, such as Gal4-RORγ, contains five copies of the Gal4 17-mer response element in its promoter and the coding sequence for firefly luciferase (pG5-luc, Promega). CHO (Chinese Hamster Ovary) cells were cultured in Ham's F12 medium supplemented with 10% fetal calf serum (Gemini Biologicals), 10 μg/ml penicillin and streptomycin, and were maintained in a humidified 37° C. incubator (Thermo Electron, Steri-Cycle) with 5% CO2. 24 hours before transfection, cells were plated in T175 flasks (5×10^6 cells/flask) or T75 flasks (1.7×10^6 cells/flask). Transient transfection of CHO cells was performed using TransIT-CHO reagents (Minis, Madison, Wis.) with a mixing ratio of 2:6:1 between plasmid DNA (in μg), TransIT-CHO (in μl) and CHO-mojo (in μl).
Plates are maintained at 37° C. in a humidified atmosphere with 7% CO2 overnight. Four (4) hours after cell seeding, compounds dissolved in DMSO at 10 mM were added to cells at final concentrations of 20 micromolar (μM) to 20 nanomolar (nM) in 0.2% DMSO in triplicate plates. Approximately 40 hours later, cytotoxicity in the assay well was characterized by addition of the dye resazurin (O'Brien, Wilson et al. 2000) to a final concentration of 3 μM. […] Percent viability was determined as 2 hour fluorescence, minus background at t=0 hours, normalized to DMSO controls. For detection of luciferase activity, media was removed from plates after the measurement of resazurin conversion, and SteadyLite luciferase reagent (Perkin-Elmer) was added (30 μl/well). Luminescence is detected with a Victor 2-V plate reader (Perkin-Elmer) and normalized to luciferase activity of DMSO control wells alone.

[1] = target: T2, hRARα (retinoic acid receptor alpha) (Homo sapiens, UniProt P10276); assay: Crossreactive receptor transcriptional assay (Gal4 hybrid); assay type: cell-based
T2 construct: 156-462; expressed in transfected cells; host or cells: CHO cells, transient transfection
T2 sequence (P10276 156-462): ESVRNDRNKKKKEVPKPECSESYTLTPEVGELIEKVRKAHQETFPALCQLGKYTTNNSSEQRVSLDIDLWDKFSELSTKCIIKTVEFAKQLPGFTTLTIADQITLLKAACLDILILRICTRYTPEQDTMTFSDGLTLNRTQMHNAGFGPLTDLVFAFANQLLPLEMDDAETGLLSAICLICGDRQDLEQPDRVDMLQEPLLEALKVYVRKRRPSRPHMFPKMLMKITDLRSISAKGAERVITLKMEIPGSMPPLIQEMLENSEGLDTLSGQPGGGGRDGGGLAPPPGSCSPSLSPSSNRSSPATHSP

[2] = target: T3, mGR (glucocorticoid receptor) (Mus musculus, UniProt P06537); assay: as above; assay type: cell-based
T3 construct: 524-793; expressed in transfected cells; host or cells: CHO cells, transient transfection
T3 sequence (P06537 524-793 isoform P06537-2): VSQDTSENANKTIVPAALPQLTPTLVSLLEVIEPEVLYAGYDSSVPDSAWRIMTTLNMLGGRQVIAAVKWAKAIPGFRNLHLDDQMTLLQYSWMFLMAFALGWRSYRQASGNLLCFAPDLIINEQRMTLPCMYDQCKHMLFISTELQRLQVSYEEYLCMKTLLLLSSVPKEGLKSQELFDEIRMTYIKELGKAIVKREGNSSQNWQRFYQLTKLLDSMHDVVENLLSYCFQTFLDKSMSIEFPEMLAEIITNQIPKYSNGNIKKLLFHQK

[3] = test system: TH-17 cell differentiation from naïve CD4+ T cells; assay: Differentiation of naïve CD4+ T cells, intracellular IL-17/IFN-γ staining by FACS (TH-17 protocol, TGFβ + IL-6); assay type: cell-based, mouse; settings: for Cell Frequency (%) Th-17 Differentiation IFN-γ^+ / Cell Frequency (%) Th-17 Differentiation IL-17^+: Table 11, 3 μM; for Cell Frequency (%) Th-17 Differentiation IFN-γ^+: DMSO vehicle 1.03%; for Cell Frequency (%) Th-17 Differentiation IL-17^+: DMSO vehicle 3.81%
[4] = test system: human IL-17 release from PBMCs; assay: Human IL-17 release from Con A stimulated PBMCs (ELISA); assay type: cell-based; settings: 1 μg/ml Con A, 3 days; for Con A stimulated IL-17 release into culture medium: 3 μM; for reversal of antagonist effect on IL-17 release by agonist: 3 μM each
Description: We also investigated whether human IL-17 is subject to regulation by RORγ ligands.

[5] = test system: TH1 cell differentiation from naïve CD4+ T cells; assay: Differentiation of naïve CD4+ T cells with IL-12 (Th-1 protocol), IFN-γ staining by FACS; assay type: cell-based, mouse; settings: for effect on TH1 cell differentiation: in the presence of IL-12
[6] = test system: IL-22 release in lymph node cultures; assay: Lymph node cell cultures from MOG-immunized C57BL/6 mice, IL-22 ELISA; assay type: cell-based
Method: FIGS. 15A-B. IL-22 release in lymph node cultures is regulated by RORγ ligands. Lymph node cells from MOG-immunized C57BL/6 mice were cultured for 3 days with 30 μg/ml MOG, […] IL-23 (FIG. 15A) and 3 μM compounds (FIG. 15B). Culture media were analyzed by IL-22 ELISA.
ELISA kits for mouse IL-17 and human IL-17 were from eBioscience (San Diego, Calif.). ELISA assays were performed following the manufacturer's protocol. Certain samples were diluted 20-fold to avoid maximization of enzymatic signals. For mouse IL-22 ELISA, antibodies and standards were from Antigenix America (Huntington Station, N.Y.) and accessory components were from eBioscience. The IL-22 assay protocol was similar to that of the IL-17 assays.
The proinflammatory cytokine IL-22 is also expressed in Th-17 cells. […] In addition, IL-22 seems to have 30-50 fold higher levels than IL-17. […] This is illustrated in FIG. 15.

[7] = Table 6, read-out: Potency (EC50) at hRARα
[8] = Table 6, read-out: Potency (EC50) at mGR
[9] = Table 9, 3 μM (combination 3 μM each), 4 ng/ml TGFβ and 20 ng/ml IL-6, DMSO 2.32%
[10] = Table 9, 3 μM (combination 3 μM each), DMSO 1.60%
[11] = Table 9, 3 μM (combination 3 μM each), 10 ng/ml IL-12, DMSO 36.3%

- EC50 [1, 7]: > 10 µM
- EC50 [2, 8]: > 10 µM
Compound: O=S(=O)(c1ccccc1)N(CC(F)(F)F)c1ccc(C(O)(C(F)(F)F)C(F)(F)F)cc1 [Compound T0901317, N-(2,2,2-Trifluoro-ethyl)-N-[4-(2,2,2-trifluoro-1-hydroxy-1-trifluoromethyl-ethyl)-phenyl]-benzenesulfonamide, reference compound]

- EC50 (human RORγ): 0.4 µM
- EC50 [1, 7]: > 10 µM
- EC50 [2, 8]: > 10 µM
Compound: CCN(c1ccc(C(O)(C(F)(F)F)C(F)(F)F)cc1)S(=O)(=O)c1ccc([N+](=O)[O-])cc1 [OR-1050, N-Ethyl-4-nitro-N-[4-(2,2,2-trifluoro-1-hydroxy-1-trifluoromethyl-ethyl)-phenyl]-benzenesulfonamide]
- effect on TH-17 cell differentiation [3]: significantly inhibited TH-17 cell differentiation in a dose-dependent manner; also recorded: decreases the proportion of IL-17^+ cells
- Cell Frequency (%) TH-17 Protocol IL-17^+ [3, 9]: 0.44%
- Cell Frequency (%) TH-17 Protocol IFN-γ^+ [3, 10]: 1.42%
- Cell Frequency (%) Th-17 Differentiation IFN-γ^+ [3]: 1.09%
- Cell Frequency (%) Th-17 Differentiation IL-17^+ [3]: 1.47%
- Cell Frequency (%) Th-1 Protocol IFN-γ^+ [5, 11]: 37.4%
- effect on TH1 cell differentiation ([5]; 3 μM): does not inhibit TH1 differentiation
- IL-22 production in LN cultures ([6]; 3 μM each (FIG. 15)): inhibited
- Con A stimulated IL-17 release into culture medium [4]: inhibited

- EC50 (human RORγ): 1 µM
- EC50 [1, 7]: > 10 µM
- EC50 [2, 8]: > 10 µM
Compound: COc1c(C=NNc2nc(N3CCCCC3)nc(N3CCCCC3)n2)cccc1[N+](=O)[O-] [OR-2161, N-(4,6-Di-piperidin-1-yl-[1,3,5]triazin-2-yl)-N′-(2-methoxy-3-nitro-benzylidene)-hydrazine]

- EC50 (human RORγ): 6.8 µM
- EC50 [1, 7]: > 10 µM
- EC50 [2, 8]: > 10 µM
Compound: CCn1c(CNc2ccc(Cl)cc2)nnc1SCC(=O)Nc1cccc2ccccc12 [OR-133008, 2-{5-[(4-Chloro-phenylamino)-methyl]-4-ethyl-4H-[1,2,4]triazol-3-ylsulfanyl}-N-naphthalen-1-yl-acetamide]

More lines, now with the values behind:

Compound: CC(=O)O[C@H]1CC[C@@]2(C)C(CC[C@]3(C)C2C(=O)C=C2C4[C@@H](C)[C@H](C)CC[C@]4(C(=O)O)CC[C@]23C)C1(C)C (stereo in doubt) [OR-13571, 10-Acetoxy-1,2,6a,6b,9,9,12a-heptamethyl-13-oxo-1,3,4,5,6,6a,6b,7,8,8a,9,10,11,12,12a,12b,13,14b-octadecahydro-2H-picene-4a-carboxylic acid]
- EC50 (human RORγ): 0.2 µM
- EC50 [1, 7]: > 10 µM
- EC50 [2, 8]: > 10 µM
- effect on TH-17 cell differentiation [3]: exerted a similar effect on TH-17 differentiation as OR-885 and OR-1050; also recorded: inhibits TH-17 differentiation
- Cell Frequency (%) Th-17 Differentiation IFN-γ^+ [3]: 0.93%
- Cell Frequency (%) Th-17 Differentiation IL-17^+ [3]: 1.42%
- Con A stimulated IL-17 release into culture medium [4]: inhibited

Compound: C[C@@H]1CC[C@@]2(OC1)O[C@H]1C[C@H]3[C@@H]4CC[C@H]5C[C@@H](O)CC[C@]5(C)[C@H]4C[C@@H](O)[C@]3(C)[C@H]1[C@@H]2C [OR-885, 5α,20α, 22α, 25D-SPIROSTAN-3β, 12β-DIOL]
- EC50 (human RORγ): 5.1 µM
- EC50 (μM), transcriptional assay of human RORγ (human RORγ): significantly less potent at hRORγ
- EC50 [1]: > 10 µM
- EC50 [2]: > 10 µM
- Cell Frequency (%) TH-17 Protocol IFN-γ^+ [3]: 1.45%
- Cell Frequency (%) TH-17 Protocol IL-17^+ [3]: 0.52%
- effect on TH-17 cell differentiation [3]: blocks the differentiation of TH-17 cells
- Cell Frequency (%) Th-1 Protocol IFN-γ^+ ([5]; Table 10, 3 μM, DMSO vehicle 29.7%): 34.2%
- IL-22 production in LN cultures [6]: inhibited
- reversal of antagonist effect on IL-17 release by agonist [4]: partially reversible by OR-12872

Compound: COC(C)CCC(C)C1CCC2C3CC(O)C4CC(O)CCC4(C)C3CCC12C (stereo not shown) [OR-12872, 17-(4-Methoxy-1-methyl-pentyl)-10,13-dimethyl-hexadecahydro-cyclopenta[a]phenanthrene-3,6-diol]
- EC50 [1, 7]: > 10 µM
- EC50 [2, 8]: > 10 µM
- effect on TH-17 cell differentiation [3]: stimulatory; also recorded: able to reverse the effect of OR-1050; also recorded: increases the fraction of IL-17^+ cells
- elevation of TH-17 frequency by agonist alone ([3]; 3 μM (FIG. 8)): 60%
- increase of TH-17 frequency from the lower baseline produced by OR-1050 ([3]; 3 μM agonist in the presence of 3 μM OR-1050 (FIG. 8)): 400%
- Cell Frequency (%) TH-17 Protocol IL-17^+ [3, 9]: 3.91%
- Cell Frequency (%) TH-17 Protocol IFN-γ^+ [3, 10]: 1.37%
- Cell Frequency (%) TH-17 Protocol IFN-γ^+ ([3]; Table 10, 1 μM, DMSO vehicle 0.71%): 0.65%
- Cell Frequency (%) TH-17 Protocol IL-17^+ ([3]; Table 10, 1 μM, DMSO vehicle 2.46%): 3.96%
- Cell Frequency (%) Th-1 Protocol IFN-γ^+ [5, 11]: 41.4%
- Cell Frequency (%) Th-1 Protocol IFN-γ^+ ([5]; Table 10, 1 μM, DMSO vehicle 29.7%): 30.8%
- effect on TH1 cell differentiation ([5]; 3 μM): Neither 3 μM OR-1050 nor 3 μM OR-12872 had an effect on the frequency of TH1 cell differentiation
- IL-22 production in LN cultures ([6]; 3 μM each (FIG. 15)): enhanced
- reversal of antagonist effect on IL-17 release by agonist [4]: partly reverse the effects of OR-1050 and OR-13571
- Con A stimulated IL-17 release into culture medium [4]: does not significantly alter IL-17 release
